{"source": "patent US20240299385A1", "about": "(ReWind Therapeutics NV, priority 2021, published 2024)", "data": [{"target": "T1, human GPR17 receptor (Homo sapiens, UniProt Q13304)", "T1 construct": "host or cells: HEK-293", "T1 sequence (Q13304 whole entry)": "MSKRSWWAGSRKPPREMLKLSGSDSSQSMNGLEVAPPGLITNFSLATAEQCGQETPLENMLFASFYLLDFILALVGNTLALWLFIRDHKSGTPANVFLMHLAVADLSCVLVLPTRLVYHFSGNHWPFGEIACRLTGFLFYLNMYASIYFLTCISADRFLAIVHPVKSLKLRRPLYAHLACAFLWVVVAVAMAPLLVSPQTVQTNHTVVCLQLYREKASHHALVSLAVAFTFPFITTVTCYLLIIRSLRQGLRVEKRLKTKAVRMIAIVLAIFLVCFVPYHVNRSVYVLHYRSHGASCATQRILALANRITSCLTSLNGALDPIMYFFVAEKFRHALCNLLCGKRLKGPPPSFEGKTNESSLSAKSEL", "assay": "Calcium mobilization functional assay (Fluo-8, FLIPR TETRA) in HEK-293 hGPR17 (Gα-q assay)", "type": "cell-based", "details": "antagonism of MDL29,951 (~EC80) induced Ca2+ signal; cell line (HEK-293 hGPR17 or HEK-293 Suchi5 hGPR17) not given", "outline": "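Fluo-8-loaded HEK-293 hGPR17 cells (60 min dye loading, room temperature) were preincubated with compound for twenty minutes, then challenged with agonist MDL29,951 at ~EC80, 500 nM. Intracellular calcium release via Gα-q was recorded as FLIPR fluorescence for a further 2 minutes; compounds tested in duplicate.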", "units": {"IC50": "nM"}, "values": [{"compound": "O=S(=O)(Nc1ccc(C(F)(F)F)nc1F)c1c[nH]c(-c2ccccc2)c1", "note": "[Cpd 186, N-[2-fluoro-6-(trifluoromethyl)-3-pyridyl]-5-phenyl-1H-pyrrole-3-sulfonamide]", "IC50": "500 to 5000"}, {"compound": "O=S(=O)(Nc1cc(F)c(C(F)(F)F)cc1F)c1c[nH]c(-c2ccc(C(F)(F)F)cn2)c1", "note": "[Cpd 369, N-[2,5-difluoro-4-(trifluoromethyl)phenyl]-5-[5-(trifluoromethyl)-2-pyridyl]-1H-pyrrole-3-sulfonamide]", "IC50": "5000 to 50000"}, {"compound": "Cc1cc(F)ccc1-c1cc(S(=O)(=O)Nc2ccc(C#N)cc2F)c[nH]1", "note": "[Cpd 255, N-(4-cyano-2-fluoro-phenyl)-5-(4-fluoro-2-methyl-phenyl)-1H-pyrrole-3-sulfonamide]", "IC50": "500 to 5000"}, {"compound": "N#CCOc1cc(F)c(NS(=O)(=O)c2c[nH]c(-c3ccccc3F)c2)cc1F", "note": "[Cpd 448, N-[4-(cyanomethoxy)-2,5-difluorophenyl]-5-(2-fluorophenyl)-1H-pyrrole-3-sulfonamide]", "IC50": "< 500"}, {"compound": "O=S(=O)(Nc1cc(F)c(C(F)(F)F)cc1F)c1c[nH]c(-c2ncccc2F)c1", "note": "[Cpd 148, N-(2,5-difluoro-4-(trifluoromethyl)phenyl)-5-(3-fluoropyridin-2-yl)-1H-pyrrole-3-sulfonamide]", "IC50": "< 500"}, {"compound": "COc1cc(Br)cnc1NS(=O)(=O)c1c[nH]c(-c2ccccn2)c1", "note": "[Cpd 167, N-(5-bromo-3-methoxy-2-pyridyl)-5-(2-pyridyl)-1H-pyrrole-3-sulfonamide]", "IC50": "500 to 5000"}, {"compound": "N#Cc1cc(F)c(NS(=O)(=O)c2c[nH]cc2Cc2cccc(Cl)c2)cc1F", "note": "[Cpd 569, 4-[(3-chlorophenyl)methyl]-N-(4-cyano-2,5-difluorophenyl)-1H-pyrrole-3-sulfonamide]", "IC50": "< 500"}, {"compound": "N#Cc1ccc(NS(=O)(=O)c2c[nH]c(-c3c(F)cccc3Cl)c2)c(F)c1", "note": "[Cpd 289, 5-(2-chloro-6-fluoro-phenyl)-N-(4-cyano-2-fluoro-phenyl)-1H-pyrrole-3-sulfonamide]", "IC50": "< 500"}, {"compound": "O=S(=O)(Nc1cc(F)c(C(F)(F)F)cc1F)c1c[nH]c(-c2ncccn2)c1", "note": "[Cpd 150, N-[2,5-difluoro-4-(trifluoromethyl)phenyl]-5-pyrimidin-2-yl-1H-pyrrole-3-sulfonamide]", "IC50": "500 to 5000"}, {"compound": "O=S(=O)(Nc1ncc(C(F)(F)F)cc1F)c1c[nH]c(-c2ccccc2)c1", "note": "[Cpd 140, N-[3-fluoro-5-(trifluoromethyl)-2-pyridyl]-5-phenyl-1H-pyrrole-3-sulfonamide]", "IC50": "500 to 5000"}, {"compound": "N#Cc1cc(F)c(NS(=O)(=O)c2c[nH]c(-c3ccccc3)c2)s1", "note": "[Cpd 601, N-(5-cyano-3-fluorothiophen-2-yl)-5-phenyl-1H-pyrrole-3-sulfonamide]", "IC50": "500 to 5000"}, {"compound": "O=S(=O)(Nc1cc(F)c(CO)cc1F)c1c[nH]c(-c2ccccc2)c1", "note": "[Cpd 537, N-[2,5-difluoro-4-(hydroxymethyl)phenyl]-5-phenyl-1H-pyrrole-3-sulfonamide]", "IC50": "500 to 5000"}, {"compound": "Cc1ccnc(-c2cc(S(=O)(=O)Nc3cc(F)c(C(F)(F)F)cc3F)c[nH]2)c1", "note": "[Cpd 303, N-[2,5-difluoro-4-(trifluoromethyl)phenyl]-5-(4-methyl-2-pyridyl)-1H-pyrrole-3-sulfonamide]", "IC50": "500 to 5000"}, {"compound": "N#CCOc1cc(F)c(NS(=O)(=O)c2c[nH]c(-c3cc(Cl)ccc3F)c2)cc1F", "note": "[Cpd 449, 5-(5-chloro-2-fluorophenyl)-N-[4-(cyanomethoxy)-2,5-difluorophenyl]-1H-pyrrole-3-sulfonamide]", "IC50": "< 500"}, {"compound": "N#Cc1ccc(NS(=O)(=O)c2c[nH]cc2Cc2cccc(OC(F)(F)F)c2)c(F)c1", "note": "[Cpd 308, N-(4-cyano-2-fluoro-phenyl)-4-[[3-(trifluoromethoxy)phenyl]methyl]-1H-pyrrole-3-sulfonamide]", "IC50": "500 to 5000"}, {"compound": "N#Cc1cc(F)c(NS(=O)(=O)c2c[nH]cc2Cc2cccc(F)c2)cc1F", "note": "[Cpd 585, N-(4-cyano-2,5-difluorophenyl)-4-[(3-fluorophenyl)methyl]-1H-pyrrole-3-sulfonamide]", "IC50": "< 500"}, {"compound": "N#Cc1ccc(NS(=O)(=O)c2c[nH]c(-c3ccccc3)c2F)c(F)c1", "note": "[Cpd 023, N-(4-cyano-2-fluorophenyl)-4-fluoro-5-phenyl-1H-pyrrole-3-sulfonamide]", "IC50": "< 500"}, {"compound": "N#Cc1cnc(-c2cc(S(=O)(=O)Nc3cc(F)c(OC(F)F)cc3F)c[nH]2)s1", "note": "[Cpd 617, 5-(5-cyano-1,3-thiazol-2-yl)-N-[4-(difluoromethoxy)-2,5-difluorophenyl]-1H-pyrrole-3-sulfonamide]", "IC50": "5000 to 50000"}, {"compound": "O=S(=O)(Nc1ncc(Cl)cc1F)c1c[nH]c(-c2ccccc2)c1", "note": "[Cpd 068, N-(5-chloro-3-fluoro-2-pyridyl)-5-phenyl-1H-pyrrole-3-sulfonamide]", "IC50": "< 500"}, {"compound": "N#Cc1cc(F)c(NS(=O)(=O)c2c[nH]c(-c3ccns3)c2)cc1F", "note": "[Cpd 656, N-(4-cyano-2,5-difluorophenyl)-5-(1,2-thiazol-5-yl)-1H-pyrrole-3-sulfonamide]", "IC50": "500 to 5000"}, {"compound": "N#Cc1cc(F)c(NS(=O)(=O)c2c[nH]c(-c3ccccc3F)c2)cc1Cl", "note": "[Cpd 522, N-(5-chloro-4-cyano-2-fluorophenyl)-5-(2-fluorophenyl)-1H-pyrrole-3-sulfonamide]", "IC50": "< 500"}, {"compound": "N#CCc1cnc(NS(=O)(=O)c2c[nH]c(-c3ccccc3)c2)c(F)c1", "note": "[Cpd 169, N-[5-(cyanomethyl)-3-fluoro-2-pyridyl]-5-phenyl-1H-pyrrole-3-sulfonamide]", "IC50": "5000 to 50000"}, {"compound": "O=S(=O)(Nc1cc(F)c(Br)cc1F)c1c[nH]c(-c2cccc3ccoc23)c1", "note": "[Cpd 561, 5-(1-benzofuran-7-yl)-N-(4-bromo-2,5-difluorophenyl)-1H-pyrrole-3-sulfonamide]", "IC50": "500 to 5000"}, {"compound": "O=S(=O)(Nc1cc(F)c(OC(F)F)cc1F)c1c[nH]c(-c2ccc(F)cc2)c1", "note": "[Cpd 411, N-[4-(difluoromethoxy)-2,5-difluorophenyl]-5-(4-fluorophenyl)-1H-pyrrole-3-sulfonamide]", "IC50": "500 to 5000"}, {"compound": "N#Cc1ccc(NS(=O)(=O)c2c[nH]c(-c3ccc(F)cc3Cl)c2)c(F)c1", "note": "[Cpd 258, 5-(2-chloro-4-fluoro-phenyl)-N-(4-cyano-2-fluoro-phenyl)-1H-pyrrole-3-sulfonamide]", "IC50": "< 500"}, {"compound": "N#Cc1ccc(NS(=O)(=O)c2c[nH]c(-c3ccc(Cl)c(F)c3)c2)c(F)c1", "note": "[Cpd 287, 5-(4-chloro-3-fluoro-phenyl)-N-(4-cyano-2-fluoro-phenyl)-1H-pyrrole-3-sulfonamide]", "IC50": "500 to 5000"}, {"compound": "O=S(=O)(Nc1cc(F)c(OC2CC2)cc1F)c1c[nH]c(-c2ccccn2)c1", "note": "[Cpd 311, N-[4-(cyclopropoxy)-2,5-difluoro-phenyl]-5-(2-pyridyl)-1H-pyrrole-3-sulfonamide]", "IC50": "500 to 5000"}, {"compound": "N#Cc1ccc(NS(=O)(=O)c2c[nH]cc2-c2ccc(Cl)cc2)c(F)c1", "note": "[Cpd 218, 4-(4-chlorophenyl)-N-(4-cyano-2-fluoro-phenyl)-1H-pyrrole-3-sulfonamide]", "IC50": "500 to 5000"}, {"compound": "Cc1ccc(NS(=O)(=O)c2c[nH]c(-c3ccccc3)c2)c(Cl)n1", "note": "[Cpd 127, N-(2-chloro-6-methyl-3-pyridyl)-5-phenyl-1H-pyrrole-3-sulfonamide]", "IC50": "5000 to 50000"}, {"compound": "O=S(=O)(Nc1cc(OC(F)F)c(Cl)cc1F)c1c[nH]c(-c2ccccc2)c1", "note": "[Cpd 399, N-[4-chloro-5-(difluoromethoxy)-2-fluorophenyl]-5-phenyl-1H-pyrrole-3-sulfonamide]", "IC50": "500 to 5000"}, {"compound": "O=S(=O)(Nc1cc(F)c(OC(F)F)cc1F)c1c[nH]c(-c2cccc3ccoc23)c1", "note": "[Cpd 553, 5-(1-benzofuran-7-yl)-N-[4-(difluoromethoxy)-2,5-difluorophenyl]-1H-pyrrole-3-sulfonamide]", "IC50": "500 to 5000"}, {"compound": "O=S(=O)(Nc1cc(F)c(OC(F)F)cc1F)c1c[nH]c(-c2cscn2)c1", "note": "[Cpd 629, N-[4-(difluoromethoxy)-2,5-difluorophenyl]-5-(1,3-thiazol-4-yl)-1H-pyrrole-3-sulfonamide]", "IC50": "< 500"}, {"compound": "O=S(=O)(Nc1cc(F)c(C(F)(F)F)cc1F)c1c[nH]c(C2CCC2)c1", "note": "[Cpd 430, 5-cyclobutyl-N-(2,5-difluoro-4-(trifluoromethyl)phenyl)-1H-pyrrole-3-sulfonamide]", "IC50": "< 500"}, {"compound": "Cc1ccc(Cl)cc1-c1cc(S(=O)(=O)Nc2ccc(C#N)cc2F)c[nH]1", "note": "[Cpd 296, 5-(5-chloro-2-methyl-phenyl)-N-(4-cyano-2-fluoro-phenyl)-1H-pyrrole-3-sulfonamide]", "IC50": "500 to 5000"}, {"compound": "O=S(=O)(Nc1cc(F)c(C(F)(F)F)cc1F)c1c[nH]c(C2CCOC2)c1", "note": "(centres unmarked) [Cpd 424, N-[2,5-difluoro-4-(trifluoromethyl)phenyl]-5-(oxolan-3-yl)-1H-pyrrole-3-sulfonamide]", "IC50": "500 to 5000"}, {"compound": "O=S(=O)(Nc1cc(F)c(Cl)cc1F)c1c[nH]c(-c2ccccc2)c1", "note": "[Cpd 145, N-(4-chloro-2,5-difluoro-phenyl)-5-phenyl-1H-pyrrole-3-sulfonamide]", "IC50": "500 to 5000"}, {"compound": "N#Cc1cc(F)c(NS(=O)(=O)c2c[nH]c(-c3ccc(F)c(Cl)c3)c2)cc1F", "note": "[Cpd 596, 5-(3-chloro-4-fluorophenyl)-N-(4-cyano-2,5-difluorophenyl)-1H-pyrrole-3-sulfonamide]", "IC50": "500 to 5000"}, {"compound": "COc1cc(F)ccc1-c1cc(S(=O)(=O)Nc2ccc(C#N)cc2F)c[nH]1", "note": "[Cpd 352, N-(4-cyano-2-fluoro-phenyl)-5-(4-fluoro-2-methoxy-phenyl)-1H-pyrrole-3-sulfonamide]", "IC50": "500 to 5000"}, {"compound": "N#Cc1ccc(NS(=O)(=O)c2c[nH]cc2Cc2ccsc2)c(F)c1", "note": "[Cpd 392, N-(4-cyano-2-fluorophenyl)-4-(thiophen-3-ylmethyl)-1H-pyrrole-3-sulfonamide]", "IC50": "< 500"}, {"compound": "Cc1cccc(F)c1-c1cc(S(=O)(=O)Nc2cc(F)c(C(F)(F)F)cc2F)c[nH]1", "note": "[Cpd 321, N-[2,5-difluoro-4-(trifluoromethyl)phenyl]-5-(2-fluoro-6-methyl-phenyl)-1H-pyrrole-3-sulfonamide]", "IC50": "500 to 5000"}, {"compound": "N#Cc1ccc(NS(=O)(=O)c2c[nH]c(C3CCCCC3)c2)c(F)c1", "note": "[Cpd 421, N-(4-cyano-2-fluorophenyl)-5-cyclohexyl-1H-pyrrole-3-sulfonamide]", "IC50": "500 to 5000"}]}]}
